Results taken from PubChem BioAssay (NCI).
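How tested: cells in 96-well plates exposed to compound for 48 hours at five concentrations. Definition used: TGI = concentration required for complete inhibition of growth.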

Tests used:
Assay in all cases: growth of human tumour cells (NCI), 48 h
CCRF-CEM leukemia = test system: CCRF-CEM leukemia
NCI-H460 lung = test system: NCI-H460 lung
UO-31 renal = test system: UO-31 renal
OVCAR-5 ovarian = test system: OVCAR-5 ovarian
SK-MEL-28 melanoma = test system: SK-MEL-28 melanoma
UACC-62 melanoma = test system: UACC-62 melanoma
SF-539 CNS = test system: SF-539 CNS
ACHN renal = test system: ACHN renal
SK-MEL-5 melanoma = test system: SK-MEL-5 melanoma
OVCAR-4 ovarian = test system: OVCAR-4 ovarian
IGROV1 ovarian = test system: IGROV1 ovarian
MALME-3M melanoma = test system: MALME-3M melanoma
HOP-62 NSCLC = test system: HOP-62 NSCLC
SF-295 CNS = test system: SF-295 CNS
HOP-92 NSCLC = test system: HOP-92 NSCLC
RXF 393 renal = test system: RXF 393 renal
EKVX NSCLC = test system: EKVX NSCLC
DMS 114 small cell lung = test system: DMS 114 small cell lung
DLD-1 colon = test system: DLD-1 colon
SK-OV-3 ovarian = test system: SK-OV-3 ovarian
M19-MEL melanoma = test system: M19-MEL melanoma
SNB-19 CNS = test system: SNB-19 CNS
HCT-15 colon = test system: HCT-15 colon
SF-268 CNS = test system: SF-268 CNS
LXFL 529 NSCLC = test system: LXFL 529 NSCLC
OVCAR-8 ovarian = test system: OVCAR-8 ovarian
CAKI-1 renal = test system: CAKI-1 renal
A549 NSCLC = test system: A549 NSCLC
A498 renal = test system: A498 renal
K-562 leukemia = test system: K-562 leukemia
HT29 colon = test system: HT29 colon
COLO 205 colon = test system: COLO 205 colon
NCI-H226 lung = test system: NCI-H226 lung
SN12C renal = test system: SN12C renal
HCT-116 colon = test system: HCT-116 colon
SK-MEL-2 melanoma = test system: SK-MEL-2 melanoma
NCI-H23 lung = test system: NCI-H23 lung
SW-620 colon = test system: SW-620 colon
OVCAR-3 ovarian = test system: OVCAR-3 ovarian
KM12 colon = test system: KM12 colon
UACC-257 melanoma = test system: UACC-257 melanoma
SR leukemia = test system: SR leukemia
786-0 renal = test system: 786-0 renal
RPMI-8226 leukemia = test system: RPMI-8226 leukemia
U251 CNS = test system: U251 CNS
LOX IMVI melanoma = test system: LOX IMVI melanoma
NCI-H522 lung = test system: NCI-H522 lung
HCC-2998 colon = test system: HCC-2998 colon
MOLT-4 leukemia = test system: MOLT-4 leukemia
SNB-78 CNS = test system: SNB-78 CNS
M14 melanoma = test system: M14 melanoma
SNB-75 CNS = test system: SNB-75 CNS
TK-10 renal = test system: TK-10 renal
HL-60(TB) leukemia = test system: HL-60(TB) leukemia
KM20L2 colon = test system: KM20L2 colon

N#Cc1cc([N+](=O)[O-])ccc1NC(=O)/C(=N/N)C(C(=O)c1ccc(Cl)c(Cl)c1)C1OC(=O)c2ccccc21 (configuration not stated)
TGI (CCRF-CEM leukemia): > 100 µM
TGI (NCI-H460 lung): > 100 µM
TGI (UO-31 renal): > 100 µM
TGI (OVCAR-5 ovarian): > 100 µM
TGI (SK-MEL-28 melanoma): > 100 µM
TGI (UACC-62 melanoma): > 100 µM
TGI (SF-539 CNS): > 100 µM
TGI (ACHN renal): > 100 µM
TGI (SK-MEL-5 melanoma): > 100 µM
TGI (OVCAR-4 ovarian): > 100 µM
TGI (IGROV1 ovarian): > 100 µM
TGI (MALME-3M melanoma): > 100 µM
TGI (HOP-62 NSCLC): > 100 µM
TGI (SF-295 CNS): > 100 µM
TGI (HOP-92 NSCLC): 60 µM
TGI (RXF 393 renal): > 100 µM
TGI (EKVX NSCLC): > 100 µM
TGI (DMS 114 small cell lung): > 100 µM
TGI (DLD-1 colon): > 100 µM
TGI (SK-OV-3 ovarian): > 100 µM
TGI (M19-MEL melanoma): > 100 µM
TGI (SNB-19 CNS): > 100 µM
TGI (HCT-15 colon): > 100 µM
TGI (SF-268 CNS): > 100 µM
TGI (LXFL 529 NSCLC): > 100 µM
TGI (OVCAR-8 ovarian): > 100 µM
TGI (CAKI-1 renal): > 100 µM
TGI (A549 NSCLC): > 100 µM
TGI (A498 renal): > 100 µM
TGI (K-562 leukemia): > 100 µM
TGI (HT29 colon): > 100 µM
TGI (COLO 205 colon): > 100 µM
TGI (NCI-H226 lung): > 100 µM
TGI (SN12C renal): > 100 µM
TGI (HCT-116 colon): > 100 µM
TGI (SK-MEL-2 melanoma): > 100 µM
TGI (NCI-H23 lung): > 100 µM
TGI (SW-620 colon): > 100 µM
TGI (OVCAR-3 ovarian): > 100 µM
TGI (KM12 colon): > 100 µM
TGI (UACC-257 melanoma): > 100 µM
TGI (SR leukemia): > 100 µM
TGI (786-0 renal): > 100 µM
TGI (RPMI-8226 leukemia): > 100 µM
TGI (U251 CNS): > 100 µM
TGI (LOX IMVI melanoma): > 100 µM
TGI (NCI-H522 lung): > 100 µM
TGI (HCC-2998 colon): > 100 µM
TGI (MOLT-4 leukemia): > 100 µM
TGI (SNB-78 CNS): > 100 µM

CCC(=O)N(O)C(C)(C)C
TGI (CCRF-CEM leukemia): > 100 µM
TGI (NCI-H460 lung): > 100 µM
TGI (M14 melanoma): > 100 µM
TGI (UO-31 renal): > 100 µM
TGI (OVCAR-5 ovarian): > 100 µM
TGI (SK-MEL-28 melanoma): > 100 µM
TGI (UACC-62 melanoma): > 100 µM
TGI (SF-539 CNS): > 100 µM
TGI (ACHN renal): > 100 µM
TGI (SK-MEL-5 melanoma): > 100 µM
TGI (OVCAR-4 ovarian): > 100 µM
TGI (IGROV1 ovarian): > 100 µM
TGI (MALME-3M melanoma): > 100 µM
TGI (HOP-62 NSCLC): > 100 µM
TGI (SF-295 CNS): > 100 µM
TGI (HOP-92 NSCLC): > 100 µM
TGI (RXF 393 renal): > 100 µM
TGI (DMS 114 small cell lung): > 100 µM
TGI (SNB-75 CNS): > 100 µM
TGI (DLD-1 colon): > 100 µM
TGI (SK-OV-3 ovarian): > 100 µM
TGI (M19-MEL melanoma): > 100 µM
TGI (SNB-19 CNS): > 100 µM
TGI (HCT-15 colon): > 100 µM
TGI (SF-268 CNS): > 100 µM
TGI (LXFL 529 NSCLC): > 100 µM
TGI (TK-10 renal): > 100 µM
TGI (OVCAR-8 ovarian): > 100 µM
TGI (CAKI-1 renal): > 100 µM
TGI (A549 NSCLC): > 100 µM
TGI (K-562 leukemia): > 100 µM
TGI (HT29 colon): > 100 µM
TGI (COLO 205 colon): > 100 µM
TGI (NCI-H226 lung): > 100 µM
TGI (HL-60(TB) leukemia): > 100 µM
TGI (SN12C renal): > 100 µM
TGI (HCT-116 colon): > 100 µM
TGI (NCI-H23 lung): > 100 µM
TGI (KM20L2 colon): > 100 µM
TGI (SW-620 colon): > 100 µM
TGI (OVCAR-3 ovarian): > 100 µM
TGI (KM12 colon): > 100 µM
TGI (UACC-257 melanoma): > 100 µM
TGI (SR leukemia): > 100 µM
TGI (786-0 renal): > 100 µM
TGI (RPMI-8226 leukemia): > 100 µM
TGI (U251 CNS): > 100 µM
TGI (LOX IMVI melanoma): > 100 µM
TGI (NCI-H522 lung): > 100 µM
TGI (HCC-2998 colon): > 100 µM
TGI (MOLT-4 leukemia): > 100 µM
TGI (SNB-78 CNS): > 100 µM
